Measured values as given in US20250134683A1, “MICRO-NANO MEDICAL STENT FOR DIRECTIONAL, QUANTITATIVE AND TIMED RELEASE OF DRUG AND PREPARATION METHOD THEREOF” (GUANGDONG UNIVERSITY OF TECHNOLOGY, priority 2023, published 2025).

Assay: sequential release of drugs from core-shell nano-disordered electrospun fiber structure
Format: physicochemical
Conditions: composite electrospun layer of Example 1; roxithromycin in shell layer fiber, human epidermal growth factor in core layer fiber
Excerpt: Moreover, the transmission electron microscopic image of the core-shell nano-disordered electrospun fiber structure in the composite electrospun layer prepared in Example 1 is shown in FIG. 3. […] The coaxial electrospinning realizes the sequential and timed release of the two drugs in the same electrospun layer. Further, the electrospun layer can be prepared by triaxial electrospinning or multiaxial electrospinning process, which has a core-shell structure of three core layers or multi-core layers, thereby achieving the sequential and timed release of three or more drugs in the same electrospun layer.

## CC[C@H]1OC(=O)[C@H](C)[C@@H](O[C@H]2C[C@@](C)(OC)[C@@H](O)[C@H](C)O2)[C@H](C)[C@@H](O[C@@H]2O[C@H](C)C[C@H](N(C)C)[C@H]2O)[C@](C)(O)C[C@@H](C)/C(=N\OCOCCOC)[C@H](C)[C@@H](O)[C@]1(C)O [roxithromycin]
  order of drug release from core-shell fiber: released in advance
